Experimental findings from ChEMBL document CHEMBL1201862, “PubChem BioAssay data set” (2004) are described below.

Molecules are shown by their SMILES. The source made the active and inactive calls.

For one test, the target named is T1, Cytochrome P450 1A2 (Homo sapiens, UniProt P05177).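 Note: PubChem cytochrome P450 panel assay, CYP1A2 panel member.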
T1 sequence (P05177 whole entry): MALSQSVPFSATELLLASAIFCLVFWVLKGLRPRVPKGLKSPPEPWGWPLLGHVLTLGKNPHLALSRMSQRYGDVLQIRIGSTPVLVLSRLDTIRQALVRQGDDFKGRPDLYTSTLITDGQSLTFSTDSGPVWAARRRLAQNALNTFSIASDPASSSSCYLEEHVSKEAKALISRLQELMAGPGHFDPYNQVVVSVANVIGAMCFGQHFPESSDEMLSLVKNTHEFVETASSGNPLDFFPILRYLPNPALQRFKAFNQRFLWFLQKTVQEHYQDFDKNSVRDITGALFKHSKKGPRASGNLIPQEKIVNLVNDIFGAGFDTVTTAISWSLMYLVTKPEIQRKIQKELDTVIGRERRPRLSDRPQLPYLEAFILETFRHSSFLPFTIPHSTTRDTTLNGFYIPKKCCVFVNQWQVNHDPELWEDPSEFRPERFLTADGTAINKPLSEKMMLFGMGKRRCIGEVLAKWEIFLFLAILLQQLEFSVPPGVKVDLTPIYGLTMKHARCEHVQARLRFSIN

In a further test the target is Cytochrome P450 2C19 (Homo sapiens, UniProt P33261). As to the kind of experiment: Cytochrome panel assay with activity outcomes. Panel member name: p450-cyp2c19 Compounds with AC50 equal or less than 10 uM are considered active. The test is classed as functional. Particulars: read-out: AC50.
Another test concerns H4. Nature of the test: Luminescence Cell-Based Dose Response HTS to Identify Activators of 5'UTR Stem-Loop Driven Prion Protein mRNA Translation in H4 Neuroglioblastoma Cells. [Related pubchem assays: 1829 (Project Summary), 1814 (Primary HTS)]. The test is classed as functional. As to conditions: Homo sapiens.
Test [1] deals with T2, RNA-binding protein pos-1 (Caenorhabditis elegans, UniProt G5EF15).
T2 sequence (G5EF15 whole entry): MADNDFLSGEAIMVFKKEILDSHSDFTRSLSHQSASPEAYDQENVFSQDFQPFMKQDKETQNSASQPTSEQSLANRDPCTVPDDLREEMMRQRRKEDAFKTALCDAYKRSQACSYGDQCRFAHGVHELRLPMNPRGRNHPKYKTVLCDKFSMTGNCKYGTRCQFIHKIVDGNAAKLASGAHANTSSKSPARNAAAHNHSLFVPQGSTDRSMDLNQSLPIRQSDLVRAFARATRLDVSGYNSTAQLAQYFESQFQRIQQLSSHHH
As to the kind of experiment: disruptors of C. elegans POS-1 RNA interaction – biochemical, fluorescence polarization, dose response (AID 1964).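 Note: purified POS-1 fused to maltose binding protein made in E. coli; potency of compounds blocking POS-1 binding to fluorescent RNA.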 Background: In fluorescence polarisation assays a small probe gives low polarisation when free and higher when bound to something large.

Test [2] deals with T3, Zinc finger protein mex-5 (Caenorhabditis elegans, UniProt Q9XUB2).
T3 sequence (Q9XUB2 whole entry): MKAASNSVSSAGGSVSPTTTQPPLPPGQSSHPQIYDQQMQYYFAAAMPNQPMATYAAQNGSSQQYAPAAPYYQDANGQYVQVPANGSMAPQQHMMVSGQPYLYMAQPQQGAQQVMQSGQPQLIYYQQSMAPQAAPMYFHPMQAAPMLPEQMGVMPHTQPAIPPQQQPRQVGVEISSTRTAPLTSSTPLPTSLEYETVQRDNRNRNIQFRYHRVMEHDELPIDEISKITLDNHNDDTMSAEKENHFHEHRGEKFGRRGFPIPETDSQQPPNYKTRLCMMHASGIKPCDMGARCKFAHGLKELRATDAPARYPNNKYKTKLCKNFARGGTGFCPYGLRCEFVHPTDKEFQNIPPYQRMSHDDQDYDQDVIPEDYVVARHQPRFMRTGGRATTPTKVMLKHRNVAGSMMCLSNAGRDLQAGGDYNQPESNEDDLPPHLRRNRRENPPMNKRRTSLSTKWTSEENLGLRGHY
As to the kind of experiment: potency of MEX-5 RNA-binding blockers – biochemical, C. elegans, fluorescence polarization, dose response (AID 1960).

The target in test [3] is T4, Replicative DNA helicase DnaB (Mycobacterium tuberculosis, UniProt P9WMR3).
T4 sequence (P9WMR3 whole entry): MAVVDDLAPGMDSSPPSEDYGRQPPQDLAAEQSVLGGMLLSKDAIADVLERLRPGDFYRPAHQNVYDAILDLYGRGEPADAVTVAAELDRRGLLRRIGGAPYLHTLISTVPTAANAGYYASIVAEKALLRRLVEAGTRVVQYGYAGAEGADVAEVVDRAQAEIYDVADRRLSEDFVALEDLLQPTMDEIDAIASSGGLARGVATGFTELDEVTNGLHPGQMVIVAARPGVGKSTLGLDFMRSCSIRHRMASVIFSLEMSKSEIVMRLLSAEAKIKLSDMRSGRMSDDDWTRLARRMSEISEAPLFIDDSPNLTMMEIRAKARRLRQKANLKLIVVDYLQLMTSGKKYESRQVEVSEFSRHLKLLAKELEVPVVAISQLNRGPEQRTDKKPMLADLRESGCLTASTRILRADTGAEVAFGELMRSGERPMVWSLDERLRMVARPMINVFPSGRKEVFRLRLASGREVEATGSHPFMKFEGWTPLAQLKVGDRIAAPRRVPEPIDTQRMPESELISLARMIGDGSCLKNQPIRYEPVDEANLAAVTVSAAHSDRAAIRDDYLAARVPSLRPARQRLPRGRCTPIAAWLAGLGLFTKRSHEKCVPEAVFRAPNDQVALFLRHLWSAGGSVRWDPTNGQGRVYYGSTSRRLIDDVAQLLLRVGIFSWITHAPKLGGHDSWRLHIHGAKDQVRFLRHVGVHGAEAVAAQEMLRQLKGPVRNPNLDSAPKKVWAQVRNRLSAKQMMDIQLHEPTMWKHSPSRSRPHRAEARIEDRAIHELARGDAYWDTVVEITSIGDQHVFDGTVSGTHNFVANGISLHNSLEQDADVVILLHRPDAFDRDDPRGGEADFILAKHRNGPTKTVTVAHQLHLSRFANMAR
Nature of the test: DnaB intein splicing inhibitors, dose response, biochemical, cell-free fluorescence (AID 449749). The test is classed as functional.

The target in another test is T5, Protein RecA (Mycobacterium tuberculosis, UniProt P9WHJ3).
T5 sequence (P9WHJ3 whole entry): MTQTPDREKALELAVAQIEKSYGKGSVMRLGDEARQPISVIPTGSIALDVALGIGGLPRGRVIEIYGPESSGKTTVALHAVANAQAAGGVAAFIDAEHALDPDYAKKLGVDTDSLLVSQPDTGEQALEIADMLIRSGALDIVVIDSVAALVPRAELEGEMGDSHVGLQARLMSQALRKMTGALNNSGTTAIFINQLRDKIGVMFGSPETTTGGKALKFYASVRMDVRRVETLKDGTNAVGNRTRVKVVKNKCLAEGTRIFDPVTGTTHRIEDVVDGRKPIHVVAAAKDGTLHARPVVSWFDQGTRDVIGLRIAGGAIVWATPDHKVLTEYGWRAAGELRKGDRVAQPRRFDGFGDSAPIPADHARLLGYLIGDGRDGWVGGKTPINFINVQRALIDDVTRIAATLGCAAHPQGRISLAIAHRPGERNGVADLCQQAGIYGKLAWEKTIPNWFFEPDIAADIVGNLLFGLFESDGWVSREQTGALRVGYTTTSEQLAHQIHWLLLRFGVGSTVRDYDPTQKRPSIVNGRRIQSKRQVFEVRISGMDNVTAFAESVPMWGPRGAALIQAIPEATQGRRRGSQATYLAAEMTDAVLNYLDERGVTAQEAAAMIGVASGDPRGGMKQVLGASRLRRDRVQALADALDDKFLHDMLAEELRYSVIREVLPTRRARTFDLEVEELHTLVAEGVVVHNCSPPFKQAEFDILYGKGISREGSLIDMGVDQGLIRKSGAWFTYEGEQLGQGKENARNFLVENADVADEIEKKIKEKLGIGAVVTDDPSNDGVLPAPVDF
Nature of the test: Fluorescence Cell-Free Homogeneous Dose Retest to Identify Inhibitors of RecA-Intein Splicing Activity. [Related pubchem assays (depositor defined):AID2097, AID2223, AID489010, AID492950]. The test is classed as functional.

Another test addresses Cytochrome P450 3A4 (Homo sapiens, UniProt P08684).
In a further test the target is Cytochrome P450 2C9 (Homo sapiens, UniProt P11712).
Cytochrome P450 2C9, sequence (P11712 whole entry): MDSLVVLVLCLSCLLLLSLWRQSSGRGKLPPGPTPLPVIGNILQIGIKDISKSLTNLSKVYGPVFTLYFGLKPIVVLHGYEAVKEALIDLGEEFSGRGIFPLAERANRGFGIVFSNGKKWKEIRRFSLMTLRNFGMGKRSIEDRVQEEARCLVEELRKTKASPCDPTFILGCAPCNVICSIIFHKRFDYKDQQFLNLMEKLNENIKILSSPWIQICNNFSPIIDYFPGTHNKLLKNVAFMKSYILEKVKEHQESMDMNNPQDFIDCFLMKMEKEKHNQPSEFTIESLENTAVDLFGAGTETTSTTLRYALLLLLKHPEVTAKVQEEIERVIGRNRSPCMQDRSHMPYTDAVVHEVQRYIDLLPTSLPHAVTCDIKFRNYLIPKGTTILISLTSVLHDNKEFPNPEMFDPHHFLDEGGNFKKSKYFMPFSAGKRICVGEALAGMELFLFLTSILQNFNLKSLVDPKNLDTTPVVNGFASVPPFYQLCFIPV

Cytochrome P450 2C19, sequence (P33261 whole entry): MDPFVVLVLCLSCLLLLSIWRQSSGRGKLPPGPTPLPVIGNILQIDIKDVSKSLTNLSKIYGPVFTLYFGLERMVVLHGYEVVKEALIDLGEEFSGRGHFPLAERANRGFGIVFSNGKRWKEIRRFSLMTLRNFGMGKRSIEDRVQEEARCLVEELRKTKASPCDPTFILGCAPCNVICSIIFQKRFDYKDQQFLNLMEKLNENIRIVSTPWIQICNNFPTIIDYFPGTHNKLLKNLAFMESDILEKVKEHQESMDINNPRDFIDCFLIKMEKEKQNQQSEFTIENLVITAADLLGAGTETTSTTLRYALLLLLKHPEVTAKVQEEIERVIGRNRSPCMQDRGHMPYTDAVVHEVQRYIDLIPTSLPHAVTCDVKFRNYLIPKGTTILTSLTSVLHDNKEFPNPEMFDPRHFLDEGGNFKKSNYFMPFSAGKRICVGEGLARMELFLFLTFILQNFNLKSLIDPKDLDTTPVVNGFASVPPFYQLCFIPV
Cytochrome P450 3A4, sequence (P08684 whole entry): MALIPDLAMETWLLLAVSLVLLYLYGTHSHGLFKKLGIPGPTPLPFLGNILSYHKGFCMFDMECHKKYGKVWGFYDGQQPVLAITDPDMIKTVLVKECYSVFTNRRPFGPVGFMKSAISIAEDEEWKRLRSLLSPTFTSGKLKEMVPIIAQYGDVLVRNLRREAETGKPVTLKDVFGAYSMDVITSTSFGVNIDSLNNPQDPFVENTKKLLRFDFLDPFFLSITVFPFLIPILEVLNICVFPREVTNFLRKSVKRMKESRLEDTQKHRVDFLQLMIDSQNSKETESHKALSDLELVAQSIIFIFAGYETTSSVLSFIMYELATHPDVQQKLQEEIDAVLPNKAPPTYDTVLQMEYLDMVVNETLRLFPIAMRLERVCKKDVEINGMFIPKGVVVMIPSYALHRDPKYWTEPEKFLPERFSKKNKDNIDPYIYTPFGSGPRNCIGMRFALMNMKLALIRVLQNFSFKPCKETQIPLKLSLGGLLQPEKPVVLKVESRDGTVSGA

As to `O=C(NC1CCCCC1)C(c1cccs1)N(C(=O)C(F)(F)F)c1ccccc1` (stereo unspecified), at Cytochrome P450 1A2, the AC50 (in general, the midpoint of the concentration-response curve, whichever way the signal moves) is 2.51 µM (inconclusive).
For the molecule `Clc1ccccc1-c1cc(NCCN2CCOCC2)ncn1`, the figures for the AC50 at Cytochrome P450 2C19 and on Cytochrome P450 1A2 were 25.1 µM (inconclusive) and 31.6 µM (inconclusive), respectively.
As for `N#C/C(=C\c1ccc(N2CCCCC2)o1)C(=O)Nc1cccc(Br)c1`, the EC50 (in general, the concentration needed to bring the measured effect to its halfway point) in the test on H4 was 0.102 µM (active).
Consider `CC1(OC(=O)c2cnc3ccccc3n2)C(=O)C=C2C=C(c3ccc(C#N)cc3)OC=C2C1=O` (stereo unspecified), for which the EC50 in test [1] was 39.8 µM (active); in test [2], 44.9 µM (active).
On to `COC(=O)CCCC1=CC2=CC(=O)C(C)(OC(=O)c3ccc(Cl)nc3)C(=O)C2=CO1` (stereo unspecified), for which the half-maximal effective concentration (EC50) in test [1] was > 150 µM (not active); in [2], 18.8 µM (active).
Consider `CCCCCCOC(=O)c1ccc(OC(=O)c2cccnc2)cc1`, for which the AC50 in test [3] is 3.69 µM (active). Besides, the EC50 on Protein RecA was 3.58 µM (active).
Regarding `Cc1ccc(S(=O)(=O)C(C#N)c2nc3ccccc3nc2N2CC(C)OC(C)C2)cc1C` (stereo unspecified), the results for the EC50 in [1] and in [2] were 4.67 µM (inconclusive) and 26.1 µM (inconclusive), respectively.
In the case of `O=c1[nH]c(=O)n([C@H]2C[C@H](O)[C@H](CO)O2)cc1/C=C\Br`, the AC50 was 31.6 µM (inconclusive) on Cytochrome P450 1A2 and 20 µM (inconclusive) at Cytochrome P450 3A4.
On to `Cc1ccc(C)c(N/C([S-])=C(/C(=O)c2ccc(OC(F)F)cc2)[n+]2ccccc2)c1`, for which the concentration at half-maximal activity (AC50) in [3] is 36.6 µM (active). Further, on Protein RecA, the EC50 was 11.5 µM (active).
In the case of `O=C(NC1CC1)c1cccc(Nc2ccc(-c3ccc4c(c3)OCCO4)nn2)c1`, the concentration giving a half-maximal response (EC50) in the test with H4 was 52.2 µM (active).
Consider `COc1ccc(NC(=O)/C(C#N)=C/c2ncc([N+](=O)[O-])n2C)c(OC)c1`, for which the AC50 in [3] is 67.5 µM (active). For the same molecule, on Protein RecA, the EC50 is 15.6 µM (active).
Take `COCC1C2CC[C@H]3C(OCc4ccc(OC)cc4)OC[C@]4(C)[C@H]3C2=C(CN4C(=O)OC(C)(C)C)[C@H](C)C1COC` (stereo partly specified): the AC50 at Cytochrome P450 1A2 and on Cytochrome P450 2C9 was 15.8 µM (inconclusive) throughout.
Take `O=C1NC(=O)N(CCc2ccccc2)C(=O)/C1=C/NNC(=O)c1ccccc1`: the figures for the EC50 in [1] and in test [2] were 40.2 µM (active) and > 150 µM (not active), respectively.
Take `CC1(OC(=O)c2ccco2)C(=O)C=C2C=C(c3ccsc3)OC=C2C1=O` (stereo unspecified): the EC50 in test [1] is > 300 µM (not active); in test [2], 23.1 µM (active).
Take `CCN(CC)C(=O)CNc1ccc(C(F)(F)F)cc1[N+](=O)[O-]`: the EC50 was 40 µM (inconclusive) in test [1] and > 300 µM (not active) in test [2].
Regarding `CCC(C)(C)NC(=O)c1ccc2c(c1)N(CC(=O)OC)C(=O)C(C)(C)O2`, the figures for the half-maximal activity concentration (AC50) on Cytochrome P450 2C19 and on Cytochrome P450 1A2 were 20 µM (inconclusive) and 0.158 µM (inconclusive), respectively.
As for `Cc1[nH][nH]c(=O)c1C(c1ccc(N(C)C)c(Br)c1)c1c(C)[nH][nH]c1=O`, the AC50 in test [3] was 0.467 µM (active). At Protein RecA, the EC50 was 0.274 µM (active).
Take `NC(=NO)C1COc2ccccc2O1` (stereo unspecified): the AC50 was 11.2 µM (inconclusive) on Cytochrome P450 2C19, 14.1 µM (inconclusive) on Cytochrome P450 1A2 and 2.51 µM (inconclusive) on Cytochrome P450 2C9.
On to `CCCNS(=O)(=O)c1ccc(CCC(=O)NCc2ccc3c(c2)OCO3)cc1`, for which the EC50 in test [1] and in test [2] was > 300 µM (not active) throughout.
`O=C(c1c[nH]c(C(=O)C(Cl)(Cl)Cl)c1)c1ccccc1Br`: the half-maximal activity concentration (AC50) in test [3] is 6.31 µM (active). For the same molecule, the EC50 on Protein RecA was 6.33 µM (active).
Regarding `COc1cccc(-c2nc(C[S+]([O-])CC(=O)N3CCC4(CC3)OCCO4)c(C)o2)c1` (stereo unspecified), the half-maximal activity concentration (AC50) is 14.1 µM (inconclusive) on Cytochrome P450 2C19, 25.1 µM (inconclusive) on Cytochrome P450 1A2, 12.6 µM (inconclusive) on Cytochrome P450 3A4 and 31.6 µM (inconclusive) on Cytochrome P450 2C9.
Take `Cc1ccc(/C=C2\C(=O)NC(=S)N(c3ccc(F)cc3)C2=O)o1`: the values for the EC50 in test [1] and in test [2] were > 300 µM (not active) and 43.9 µM (active), respectively.
`C/C(CC(=O)Nc1cc(C)ccn1)=N\NC(=O)c1ccccc1C`: the AC50 in [3] was 26.8 µM (active). The EC50 on Protein RecA is 6.24 µM (active).
Take `CCN(CC)c1ccc(/C=c2/sc3nnc(-c4ccccc4C)n3c2=O)cc1`: the half-maximal effective concentration (EC50) is > 300 µM (not active) in [1] and > 300 µM (inconclusive) in [2].
As to `CC(C)(S)[C@H](N)C(=O)O`, the AC50 at Cytochrome P450 1A2 is 6.31 µM (inconclusive).
With `O=C(O[C@@H]1Cc2c(O)cc(O)cc2O[C@@H]1c1cc(O)c(O)c(O)c1)c1cc(O)c(O)c(O)c1` [EPIGALOCATECHIN GALLATE], the half-maximal effective concentration (EC50) was 5.89 µM (inconclusive) in test [1] and 0.727 µM (active) in test [2].
